Data from patent publication US9777012B2, “Substituted furo[2,3-d]pyrimidines as multi-targeted receptor tyrosine kinase inhibitors and microtubule targeting antitumor agents” (Duquesne University of the Holy Spirit, priority 2014, dated 2017).
Several values for one entry are separate records, joined by “and”; a condition that tells them apart may be missing. Equal values may be shown once. One block for each molecule: values may come before it.

Assays:
WTβ3 cells = assay: SRB antiproliferative assay, WTβ3 (HeLa overexpressing βIII tubulin); type: cell-based; conditions: relative resistance, WTβ3 vs parental HeLa
M6/6 cells = assay: SRB antiproliferative assay, M6/6 (SK-OV-3 expressing Pgp); type: cell-based; conditions: for Rr value: relative resistance, M6/6 (Pgp) vs parental SKOV3; for IC50: Homo sapiens, SK-OV-3, SRB assay, 48 h, Pgp expressing, read-out: IC50 ± SD in M6/6 cells
tubulin = assay: Inhibition of tubulin assembly (purified tubulin); type: biochemical; conditions: read-out: Inhibition tubulin assembly IC50(μM) ± SD
[1] = system: cellular microtubules in A-10 cells; assay: Cellular microtubule depolymerization, indirect immunofluorescence; type: cell-based; conditions: for effect on cellular microtubules: result in words
EGFR = biological target: T1, EGFR (Homo sapiens, UniProt P00533); assay: Phosphotyrosine ELISA cytoblot, EGFR (A431 cells); type: cell-based; conditions: EGF stimulation, read-out: EGFR kinase inhibition
T1 construct: tumor cell lines naturally expressing high levels of EGFR (A431); endogenous in cells; host or cells: A431

VEGFR-2 = biological target: T2, VEGFR-2 (Homo sapiens, UniProt P35968); assay: Phosphotyrosine ELISA cytoblot, VEGFR-2 (U251 cells); type: cell-based; conditions: for IC50: U251 cells, phosphotyrosine ELISA, VEGF stimulation, read-out: VEGFR-2 kinase inhibition; for fold better than sunitinib, VEGFR-2: VEGFR-2 expressing cells
T2 construct: tumor cell lines naturally expressing high levels of EGFR (A431), VEGFR-2 (U251); endogenous in cells; host or cells: U251

PDGFR-β = biological target: T3, PDGFR-β (Homo sapiens, UniProt P09619); assay: Phosphotyrosine ELISA cytoblot, PDGFR-β (SH-SY5Y cells); type: cell-based; conditions: for fold better than sunitinib, PDGFR-β: PDGFR-β expressing cells; for IC50: SH-SY5Y cells, phosphotyrosine ELISA, PDGF-BB stimulation, read-out: PDGFR-β kinase inhibition
T3 construct: naturally expressing high levels of EGFR (A431), VEGFR-2 (U251), and PDGFR-β (SH-SY5Y); endogenous in cells; host or cells: SH-SY5Y

A431 cancer cells = assay: A431 cytotoxicity (cell proliferation); type: cell-based; conditions: Homo sapiens, A-431; A431 cancer cells overexpressing EGFR

T1 sequence (P00533 25-1210): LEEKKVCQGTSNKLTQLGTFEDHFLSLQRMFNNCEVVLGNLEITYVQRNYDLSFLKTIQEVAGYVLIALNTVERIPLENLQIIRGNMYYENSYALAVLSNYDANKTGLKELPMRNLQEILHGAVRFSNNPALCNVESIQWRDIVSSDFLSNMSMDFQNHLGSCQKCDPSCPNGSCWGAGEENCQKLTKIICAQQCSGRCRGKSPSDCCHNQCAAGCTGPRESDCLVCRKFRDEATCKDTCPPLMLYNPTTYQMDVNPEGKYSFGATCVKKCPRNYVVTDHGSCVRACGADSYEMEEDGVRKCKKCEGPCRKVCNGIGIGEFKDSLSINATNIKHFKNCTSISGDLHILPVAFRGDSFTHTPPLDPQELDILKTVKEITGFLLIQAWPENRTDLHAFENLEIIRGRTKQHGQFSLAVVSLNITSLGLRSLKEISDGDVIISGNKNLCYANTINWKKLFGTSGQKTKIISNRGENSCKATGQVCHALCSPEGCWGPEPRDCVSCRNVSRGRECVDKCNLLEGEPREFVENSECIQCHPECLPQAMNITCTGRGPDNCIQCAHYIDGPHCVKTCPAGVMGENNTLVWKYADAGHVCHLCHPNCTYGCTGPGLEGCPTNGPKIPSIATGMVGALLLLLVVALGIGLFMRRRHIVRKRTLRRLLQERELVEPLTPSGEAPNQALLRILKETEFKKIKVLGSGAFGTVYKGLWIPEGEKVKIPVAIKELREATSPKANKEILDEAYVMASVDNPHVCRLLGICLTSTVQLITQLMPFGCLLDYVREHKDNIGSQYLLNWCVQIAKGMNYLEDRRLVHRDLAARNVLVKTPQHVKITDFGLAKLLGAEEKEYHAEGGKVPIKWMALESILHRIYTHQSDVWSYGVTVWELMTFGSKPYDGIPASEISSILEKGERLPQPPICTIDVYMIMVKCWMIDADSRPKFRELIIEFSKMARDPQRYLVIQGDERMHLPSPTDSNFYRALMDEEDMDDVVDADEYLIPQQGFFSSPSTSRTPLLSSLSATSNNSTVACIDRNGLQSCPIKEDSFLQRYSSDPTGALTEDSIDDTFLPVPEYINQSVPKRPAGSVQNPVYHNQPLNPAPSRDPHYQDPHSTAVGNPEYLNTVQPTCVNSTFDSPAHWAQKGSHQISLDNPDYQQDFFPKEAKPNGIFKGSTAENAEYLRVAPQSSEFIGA
T3 sequence (P09619 33-1106): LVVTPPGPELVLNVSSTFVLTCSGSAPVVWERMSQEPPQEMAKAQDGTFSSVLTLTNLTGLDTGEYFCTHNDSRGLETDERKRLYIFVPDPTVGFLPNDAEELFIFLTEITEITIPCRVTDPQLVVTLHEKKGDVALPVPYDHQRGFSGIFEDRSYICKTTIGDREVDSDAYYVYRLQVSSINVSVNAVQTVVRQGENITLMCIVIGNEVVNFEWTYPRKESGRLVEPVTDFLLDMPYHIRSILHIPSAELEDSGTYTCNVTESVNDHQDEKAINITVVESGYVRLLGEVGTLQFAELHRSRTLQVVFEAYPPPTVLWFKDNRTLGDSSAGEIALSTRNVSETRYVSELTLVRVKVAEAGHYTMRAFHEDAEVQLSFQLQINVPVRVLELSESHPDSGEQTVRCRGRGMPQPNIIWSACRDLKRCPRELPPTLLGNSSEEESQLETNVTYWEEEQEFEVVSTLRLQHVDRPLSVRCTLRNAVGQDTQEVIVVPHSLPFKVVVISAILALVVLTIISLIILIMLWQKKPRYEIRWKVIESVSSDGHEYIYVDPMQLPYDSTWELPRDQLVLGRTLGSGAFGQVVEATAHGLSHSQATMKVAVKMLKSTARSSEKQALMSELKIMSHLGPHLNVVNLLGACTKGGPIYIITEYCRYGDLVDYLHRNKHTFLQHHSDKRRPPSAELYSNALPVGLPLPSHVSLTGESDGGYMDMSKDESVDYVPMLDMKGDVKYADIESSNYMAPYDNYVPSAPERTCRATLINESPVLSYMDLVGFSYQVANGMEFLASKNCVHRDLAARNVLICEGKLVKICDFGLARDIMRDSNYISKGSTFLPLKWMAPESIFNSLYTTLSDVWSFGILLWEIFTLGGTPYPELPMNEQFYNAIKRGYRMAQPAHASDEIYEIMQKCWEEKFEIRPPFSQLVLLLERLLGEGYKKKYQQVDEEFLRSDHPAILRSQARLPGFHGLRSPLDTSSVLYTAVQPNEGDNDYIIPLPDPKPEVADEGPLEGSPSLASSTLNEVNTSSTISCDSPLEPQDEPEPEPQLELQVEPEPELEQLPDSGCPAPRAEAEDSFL
T2 sequence (P35968 20-1356): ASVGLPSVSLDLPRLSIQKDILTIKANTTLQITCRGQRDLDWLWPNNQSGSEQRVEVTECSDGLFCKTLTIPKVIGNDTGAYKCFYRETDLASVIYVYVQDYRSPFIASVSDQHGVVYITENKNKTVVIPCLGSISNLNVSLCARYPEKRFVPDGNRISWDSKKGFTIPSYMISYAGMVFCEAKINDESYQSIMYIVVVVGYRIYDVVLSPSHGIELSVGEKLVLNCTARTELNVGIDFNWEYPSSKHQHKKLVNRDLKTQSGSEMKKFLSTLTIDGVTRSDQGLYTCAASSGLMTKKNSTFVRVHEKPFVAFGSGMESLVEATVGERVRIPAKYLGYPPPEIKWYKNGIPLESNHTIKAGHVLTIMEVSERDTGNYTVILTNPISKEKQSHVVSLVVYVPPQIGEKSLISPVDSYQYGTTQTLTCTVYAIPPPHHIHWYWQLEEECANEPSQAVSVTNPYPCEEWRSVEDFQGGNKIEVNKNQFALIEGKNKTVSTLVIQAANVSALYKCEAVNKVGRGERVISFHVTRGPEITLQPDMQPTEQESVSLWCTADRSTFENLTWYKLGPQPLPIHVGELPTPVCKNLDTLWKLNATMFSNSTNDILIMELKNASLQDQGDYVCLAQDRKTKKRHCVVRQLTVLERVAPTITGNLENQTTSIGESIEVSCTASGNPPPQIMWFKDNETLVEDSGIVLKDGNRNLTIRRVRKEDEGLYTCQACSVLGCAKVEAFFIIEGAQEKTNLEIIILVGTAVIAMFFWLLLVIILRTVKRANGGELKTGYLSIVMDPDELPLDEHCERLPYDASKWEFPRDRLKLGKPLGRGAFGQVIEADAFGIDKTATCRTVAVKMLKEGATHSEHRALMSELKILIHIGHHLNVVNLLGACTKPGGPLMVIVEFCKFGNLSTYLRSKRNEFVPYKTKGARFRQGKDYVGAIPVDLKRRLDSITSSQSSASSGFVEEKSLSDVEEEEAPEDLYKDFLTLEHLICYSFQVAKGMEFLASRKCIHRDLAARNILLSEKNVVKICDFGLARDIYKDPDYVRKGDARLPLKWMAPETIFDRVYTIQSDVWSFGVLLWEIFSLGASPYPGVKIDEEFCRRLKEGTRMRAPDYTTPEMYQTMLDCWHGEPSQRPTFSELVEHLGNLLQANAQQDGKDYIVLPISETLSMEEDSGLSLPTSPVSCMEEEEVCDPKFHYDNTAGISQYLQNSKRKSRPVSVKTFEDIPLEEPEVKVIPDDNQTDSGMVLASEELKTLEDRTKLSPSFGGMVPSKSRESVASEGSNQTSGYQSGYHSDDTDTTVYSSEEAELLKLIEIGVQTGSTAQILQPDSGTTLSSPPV

Structure (SMILES): COc1ccc(/C=C\c2cc(OC)c(OC)c(OC)c2)cc1O [CA-4, combretastatin A-4, reference compound]
Rr value (WTβ3 cells): 1.0
Rr value (M6/6 cells): 0.4

Structure (SMILES): COc1ccc(N(C)c2nc(C)nc3oc(C)cc23)cc1 [Compound 1]
IC50 (tubulin): 2.4 ± 0.01 µM
Rr value (WTβ3 cells): 0.8
EC50 ([1]; Rattus norvegicus, A10, 18 h, read-out: EC50 for MT depolymerization in A · 10 cells): 103 nM
Rr value (M6/6 cells): 1.7

Structure (SMILES): COc1ccc(N(C)c2nc(C)nc3oc(C)cc23)cc1OC [Compound 3, N-(3,4-dimethoxyphenyl)-N,2,6-trimethylfuro[2,3-d]pyrimidin-4-amine]
effect on cellular microtubules [1]: dose-dependent loss of cellular microtubules

IC50 (EGFR): > 500 nM
IC50 (VEGFR-2): > 300 nM
Structure (SMILES): COc1cc(N(C)c2nc(C)nc3oc(C)cc23)cc(OC)c1OC [Compound 4, N,2,6-trimethyl-N-(3,4,5-trimethoxyphenyl)furo[2,3-d]pyrimidin-4-amine]

fold better than sunitinib, PDGFR-β (PDGFR-β): about 4 fold
IC50 (M6/6 cells): 155 ± 17.2 nM
fold better than sunitinib, VEGFR-2 (VEGFR-2): 3 fold
Structure (SMILES): Cc1nc(N(C)c2ccc3c(c2)CCO3)c2cc(C)oc2n1 [Compound 6, N-(2,3-dihydro-1-benzofuran-5-yl)-N,2,6-trimethylfuro[2,3-d]pyrimidin-4-amine]
effect on cellular microtubules [1]: dose-dependent loss of cellular microtubules
Rr value (M6/6 cells): 1.3

fold better than sunitinib, PDGFR-β (PDGFR-β): about 4 fold
IC50 (M6/6 cells): 509 ± 4.8 nM
fold better than sunitinib, VEGFR-2 (VEGFR-2): 3 fold
Structure (SMILES): Cc1nc(N(C)c2ccc3occc3c2)c2cc(C)oc2n1 [Compound 7, N-1-benzofuran-5-yl-N,2,6-trimethylfuro[2,3-d]pyrimidin-4-amine]
effect on cellular microtubules [1]: dose-dependent loss of cellular microtubules
Rr value (M6/6 cells): 1.2

Structure (SMILES): COc1ccc2c(c1)CCN2c1nc(C)nc2oc(C)cc12 [Compound 8, 4-(5-methoxyindolin-1-yl)-2,6-dimethylfuro[2,3-d]pyrimidine]
effect on cellular microtubules [1]: no effect on cellular microtubules

IC50 (EGFR): > 500 nM
Structure (SMILES): COc1ccc2c(ccn2-c2nc(C)nc3oc(C)cc23)c1 [Compound 9, 4-(5-methoxy-1H-indol-1-yl)-2,6-dimethylfuro[2,3-d]pyrimidine]

Structure (SMILES): COc1ccc2c(c1)CCCN2c1nc(C)nc2oc(C)cc12 [Compound 10, 4-(6-methoxy-3,4-dihydroquinolin-1(2H)-yl)-2,6-dimethylfuro[2,3-d]pyrimidine]
effect on cellular microtubules [1]: dose-dependent loss of cellular microtubules

IC50 (PDGFR-β): 84 ± 10 nM
IC50 (EGFR): 102 ± 20.1 nM
IC50 (VEGFR-2): 38.5 ± 4.7 nM
Structure (SMILES): CCOc1ccc(N(C)c2nc(C)nc3oc(C)cc23)cc1 [Compound 11, N-(4-ethoxyphenyl)-N,2,6-trimethylfuro[2,3-d]pyrimidin-4-amine]

IC50 (PDGFR-β): 132 ± 14.4 nM
IC50 (EGFR): > 500 nM
IC50 (M6/6 cells): 30.8 ± 1.7 nM
IC50 (VEGFR-2): 121 ± 18.6 nM
Structure (SMILES): CCCOc1ccc(N(C)c2nc(C)nc3oc(C)cc23)cc1 [Compound 12, N-2,6-trimethyl-N-(4-propoxyphenyl)furo[2,3-d]pyrimidin-4-amine]
Rr value (M6/6 cells): 1.3
IC50 (A431 cancer cells): 92.9 ± 10.1 nM

Structure (SMILES): CC(=O)O[C@H]1C(=O)[C@@]2(C)[C@H]([C@H](OC(=O)c3ccccc3)[C@]3(O)C[C@H](OC(=O)[C@H](O)[C@@H](NC(=O)c4ccccc4)c4ccccc4)C(C)=C1C3(C)C)[C@]1(OC(C)=O)CO[C@@H]1C[C@@H]2O [Paclitaxel, reference compound]
Rr value (WTβ3 cells): 17.3
Rr value (M6/6 cells): over 250 and 265.2
